Measurements reported in patent US20220257569A1, “INDOLE-OXADIAZOLE COMPOUNDS AND THEIR THERAPEUTIC USE” (THE GOVERNING COUNCIL OF THE UNIVERSITY OF TORONTO, priority 2018, published 2022).

Experiments:
cannabinoid CB1 receptor = molecular target: T1, cannabinoid CB1 receptor (Homo sapiens, UniProt P21554); experiment: PathHunter β-Arrestin assay (allosteric inhibition of agonist Emax); format: cell-based; settings: HEK293 CB1 β-arrestin cells; concentration of modulator giving 50% reduction in agonist Emax; 60 min pre-incubation
T1 construct: host or cells: HEK293 CB1 β-arrestin cells
T1 sequence (P21554 whole entry): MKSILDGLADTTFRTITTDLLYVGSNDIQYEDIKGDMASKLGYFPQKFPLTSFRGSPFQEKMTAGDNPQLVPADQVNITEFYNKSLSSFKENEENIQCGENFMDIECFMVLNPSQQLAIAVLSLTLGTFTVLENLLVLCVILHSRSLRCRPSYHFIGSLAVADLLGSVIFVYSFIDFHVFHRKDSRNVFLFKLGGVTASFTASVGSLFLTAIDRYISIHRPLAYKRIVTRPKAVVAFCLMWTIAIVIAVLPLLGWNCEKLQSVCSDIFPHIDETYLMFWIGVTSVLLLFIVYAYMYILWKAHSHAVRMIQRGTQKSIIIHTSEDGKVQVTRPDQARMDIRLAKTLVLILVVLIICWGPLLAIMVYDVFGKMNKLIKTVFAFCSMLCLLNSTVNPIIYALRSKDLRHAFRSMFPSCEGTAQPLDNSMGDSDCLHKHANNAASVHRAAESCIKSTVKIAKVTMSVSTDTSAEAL
Description: PathHunter™ enzyme fragment complementation is the most important method to measure β-arrestin recruitment. PathHunter™ β-Arrestin assays developed by DiscoveRX are revolutionary high-throughput screening assays for monitoring GPCR activation following ligand stimulation, without an imaging instrument, fluorescent protein tag, or radioactivity.
Instead, the assays detect GPCR activation through binding of β-arrestin to the expressed GPCR of interest, and measure the interaction of the two proteins using enzyme fragment complementation (EFC). The EFC approach offers a range of benefits for screening, including signal amplification and robust performance.
The larger portion of β-gal, termed EA for enzyme acceptor, is fused to the C-terminus of β-arrestin. The smaller, complementing fragment of β-gal, the ProLink™ tag, is expressed as a fusion protein with the GPCR of interest at the C-terminus. Upon activation, the GPCR is bound by β-arrestin. The interaction of β-arrestin and the GPCR forces the interaction of ProLink and EA, thus allowing complementation of the two fragments of β-gal and the formation of a functional enzyme capable of hydrolyzing substrate and generating a […] signal.
Using the PathHunter™ CB1 kit from DiscoveRX, a cannabinoid CB1 receptor agonist is added and activates the receptor, EA, which is fused to the C-terminus of β-arrestin, and then interacts with the ProLink™ tag which is fused to the CB1 receptor. This will result in the […] signal that is recorded by a luminescence plate reader. The […] signal is directly related to the activation of the receptor, therefore a higher concentration of agonist will yield a larger […] signal. The cannabinoid agonist is added in increasing concentrations to obtain an agonist dose response curve. With pre-incubation of a potential allosteric modulator, either an enhancement of agonist activity with an allosteric enhancer or a decrease in the maximal response of the agonist with an allosteric inhibitor is expected.
All raw data are obtained as luminescence (relative light units), and are normalised and presented as a percentage of the maximal response for the cannabinoid CB1 receptor agonist CP55,940 (2-[(1R,2R,5R)-5-hydroxy-2-(3-hydroxypropyl)cyclohexyl]-5-(2-methyloctan-2-yl)phenol).
The PathHunter™ β-Arrestin assay (from DiscoveRX, Fremont, USA) was performed as follows. HEK293 CB1 β-arrestin cells were plated 48 hours before use and incubated at 37° C., 5% CO2 in a humidified incubator. Test compounds were dissolved in dimethylsulfoxide (DMSO) and diluted in optimized cell culture (OCC, as supplied by DiscoveRX) media to the required concentrations. 5 μL of test compound or vehicle solution was added to each well and incubated for 60 minutes at 37° C., 5% CO2 in a humidified incubator. 5 μL of increasing concentrations of anandamide was added to each well followed by a 90-minute incubation at 37° C., 5% CO2 in a humidified incubator. 55 μL of detection reagent (as supplied by DiscoveRX) was then added, followed by a further 90 minute incubation at room temperature in the dark. Chemiluminescence, reported in relative light units (RLU—a dimensionless value, standardised as a % of maximum stimulation with anandamide), was measured on a standard luminescence plate reader.
Data were plotted as % of maximal stimulation (Emax) caused by agonist versus the logarithm of concentration of agonist, in the presence or absence of a fixed concentration of test compound (modulator) or vehicle. For example, stimulation in the presence of agonist alone will give a value for stimulation expressed in RLU, which can be expressed as a range from 0% (at lowest agonist concentration, e.g., 1 nM) to 100% (at the highest agonist concentration, e.g., 10 μM). […]

Structure (SMILES) | melting point | IC50 (cannabinoid CB1 receptor)
COc1ccc(CSc2nnc(-c3[nH]c4ccc(Cl)cc4c3C)o2)cc1 [ABM301, 2-(5-Chloro-3-methyl-1H-indol-2-yl)-5-((4-methoxybenzyl)thio)-1,3,4-oxadiazole] | 210 to 212 °C | 0.068 µM
CCc1c(-c2nnc(SCc3ccccc3)o2)[nH]c2ccc(Br)cc12 [ABM305, 2-(Benzylthio)-5-(5-bromo-3-ethyl-1H-indol-2-yl)-1,3,4-oxadiazole] | 183 to 185 °C | 0.03 µM
CCc1c(-c2nnc(SCc3ccc(OC)cc3)o2)[nH]c2ccc(Br)cc12 [ABM309, 2-(5-Bromo-3-ethyl-1H-indol-2-yl)-5-((4-methoxybenzyl)thio)-1,3,4-oxadiazole] | 181 to 183 °C | 
Clc1ccc2[nH]c(-c3nnc(Nc4ccccc4)o3)cc2c1 [ABM310, 5-(5-Chloro-1H-indol-2-yl)-N-phenyl-1,3,4-oxadiazol-2-amine] | 272 to 274 °C | 0.003 µM
Cc1c(-c2nnc(Nc3ccccc3)o2)[nH]c2ccc(Cl)cc12 [ABM311, 5-(5-Chloro-3-methyl-1H-indol-2-yl)-N-phenyl-1,3,4-oxadiazol-2-amine] | 268 to 270 °C | 0.002 µM
CCc1c(-c2nnc(Nc3ccccc3)o2)[nH]c2ccc(Br)cc12 [ABM312, 5-(5-Bromo-3-ethyl-1H-indol-2-yl)-N-phenyl-1,3,4-oxadiazol-2-amine] | 240 to 242 °C | 0.001 µM
CCc1c(-c2nnc(NCc3ccccc3)o2)[nH]c2ccc(Cl)cc12 [ABM313, N-Benzyl-5-(5-chloro-3-ethyl-1H-indol-2-yl)-1,3,4-oxadiazol-2-amine] | 216 to 218 °C | 0.012 µM
Clc1ccc2[nH]c(-c3nnc(NCc4ccccc4)o3)cc2c1 [ABM314, N-Benzyl-5-(5-chloro-1H-indol-2-yl)-1,3,4-oxadiazol-2-amine] | 245 to 247 °C | 0.105 µM
Cc1c(-c2nnc(NCc3ccccc3)o2)[nH]c2ccc(Cl)cc12 [ABM315, N-Benzyl-5-(5-chloro-3-methyl-1H-indol-2-yl)-1,3,4-oxadiazol-2-amine] | 220 to 222 °C | 0.007 µM
CCc1c(-c2nnc(NCc3ccccc3)o2)[nH]c2ccc(Br)cc12 [ABM316, N-Benzyl-5-(5-bromo-3-ethyl-1H-indol-2-yl)-1,3,4-oxadiazol-2-amine] | 218 to 220 °C | 0.012 µM
CCc1c(-c2nnc(NCCc3ccccc3)o2)[nH]c2ccc(Cl)cc12 [ABM317, 5-(5-Chloro-3-ethyl-1H-indol-2-yl)-N-phenethyl-1,3,4-oxadiazol-2-amine] | 175 to 177 °C | 0.0005 µM
Clc1ccc2[nH]c(-c3nnc(NCCc4ccccc4)o3)cc2c1 [ABM318, 5-(5-Chloro-1H-indol-2-yl)-N-phenethyl-1,3,4-oxadiazol-2-amine] | 235 to 237 °C | 0.003 µM
Cc1c(-c2nnc(NCCc3ccccc3)o2)[nH]c2ccc(Cl)cc12 [ABM319, 5-(5-Chloro-3-methyl-1H-indol-2-yl)-N-phenethyl-1,3,4-oxadiazol-2-amine] | 195 to 197 °C | 0.001 µM
CCc1c(-c2nnc(NCCc3ccccc3)o2)[nH]c2ccc(Br)cc12 [ABM320, 5-(5-Bromo-3-ethyl-1H-indol-2-yl)-N-phenethyl-1,3,4-oxadiazol-2-amine] | 170 to 172 °C | 0.001 µM
Cc1c(-c2nnc(SCc3ccccc3)o2)[nH]c2ccc(Cl)cc12 [ABM321, 2-(Benzylthio)-5-(5-chloro-3-methyl-1H-indol-2-yl)-1,3,4-oxadiazole] | 215 to 216 °C | 0.093 µM
Cc1c(-c2nnc(SCCc3ccccc3)o2)[nH]c2ccc(Cl)cc12 [ABM322, 2-(5-Chloro-3-methyl-1H-indol-2-yl)-5-(phenethylthio)-1,3,4-oxadiazole] | 222 to 224 °C | 0.417 µM

Structure (SMILES) | melting point | IC50 (cannabinoid CB1 receptor)
Cc1c(-c2nnc(SCCCc3ccccc3)o2)[nH]c2ccc(Cl)cc12 [ABM323, 2-(5-Chloro-3-methyl-1H-indol-2-yl)-5-((3-phenylpropyl)thio)-1,3,4-oxadiazole] | 179 to 180 °C | 0.263 µM
Cc1ccc(CSc2nnc(-c3[nH]c4ccc(Cl)cc4c3C)o2)cc1 [ABM324, 2-(5-Chloro-3-methyl-1H-indol-2-yl)-5-((4-methylbenzyl)thio)-1,3,4-oxadiazole] | 212 to 214 °C | 
CCc1c(-c2nnc(SCCc3ccccc3)o2)[nH]c2ccc(Br)cc12 [ABM325] | 185 to 186 °C | 0.315 µM
CCc1c(-c2nnc(SCCCc3ccccc3)o2)[nH]c2ccc(Br)cc12 [ABM326, 2-(5-Bromo-3-ethyl-1H-indol-2-yl)-5-((3-phenylpropyl)thio)-1,3,4-oxadiazole] | 134 to 135 °C | 
CCc1c(-c2nnc(SCc3ccc(C)cc3)o2)[nH]c2ccc(Br)cc12 [ABM327, 2-(5-Bromo-3-ethyl-1H-indol-2-yl)-5-((4-methylbenzyl)thio)-1,3,4-oxadiazole] | 201 to 203 °C | 0.067 µM
CCc1c(-c2nnc(SCCc3ccccc3)o2)[nH]c2ccc(Cl)cc12 [ABM329, 2-(5-Chloro-3-ethyl-1H-indol-2-yl)-5-(phenethylthio)-1,3,4-oxadiazole] |  | 0.93 µM
CCc1c(-c2nnc(SCCCc3ccccc3)o2)[nH]c2ccc(Cl)cc12 [ABM330, 2-(5-Chloro-3-ethyl-1H-indol-2-yl)-5-((3-phenylpropyl)thio)-1,3,4-oxadiazole] | 170 to 172 °C | 
CCc1c(-c2nnc(SCc3ccc(OC)cc3)o2)[nH]c2ccc(Cl)cc12 [ABM331, 2-(5-Chloro-3-ethyl-1H-indol-2-yl)-5-((4-methoxybenzyl)thio)-1,3,4-oxadiazole] | 179 to 181 °C | 0.056 µM
CCc1c(-c2nnc(SCc3ccc(C)cc3)o2)[nH]c2ccc(Cl)cc12 [ABM332, 2-(5-Chloro-3-ethyl-1H-indol-2-yl)-5-((4-methylbenzyl)thio)-1,3,4-oxadiazole] | 195 to 197 °C | 0.085 µM
c1ccc(CSc2nnc(-c3cc4ccccc4[nH]3)o2)cc1 [ABM333, 2-(Benzylthio)-5-(1H-indol-2-yl)-1,3,4-oxadiazole] | 178 to 180 °C | 
c1ccc(CCSc2nnc(-c3cc4ccccc4[nH]3)o2)cc1 [ABM334, 2-(1H-Indol-2-yl)-5-(phenethylthio)-1,3,4-oxadiazole] | 184 to 186 °C | 0.172 µM
CCc1c(-c2nnc(Nc3ccc(F)cc3)o2)[nH]c2ccc(Cl)cc12 [ABM335, 5-(5-Chloro-3-ethyl-1H-indol-2-yl)-N-(4-fluorophenyl)-1,3,4-oxadiazol-2-amine] | 248 to 250 °C | 0.001 µM
Fc1ccc(Nc2nnc(-c3cc4cc(Cl)ccc4[nH]3)o2)cc1 [ABM336, 5-(5-Chloro-1H-indol-2-yl)-N-(4-fluorophenyl)-1,3,4-oxadiazol-2-amine] | 265 to 267 °C | 0.005 µM
Cc1c(-c2nnc(Nc3ccc(F)cc3)o2)[nH]c2ccc(Cl)cc12 [ABM337, 5-(5-Chloro-3-methyl-1H-indol-2-yl)-N-(4-fluorophenyl)-1,3,4-oxadiazol-2-amine] | 256 to 258 °C | 0.001 µM
Cc1c(-c2nnc(SCc3ccc(F)cc3)o2)[nH]c2ccc(Cl)cc12 [ABM339, 2-(5-Chloro-3-methyl-1H-indol-2-yl)-5-((4-fluorobenzyl)thio)-1,3,4-oxadiazole] | 210 to 212 °C | 0.27 µM
